Molecules are shown by their SMILES.

What all share (assay): Eurofins kinase panel
What all share (assay type): biochemical
Settings in all cases: read-out: Inhibition rate (%)

The target in one experiment is T1, EphA7(h) (Homo sapiens, UniProt Q15375).
T1 construct: purchased Eurofins (KinaseProfiler)

Another experiment deals with T2, IKKβ(h) (Homo sapiens, UniProt O14920).
T2 construct: purchased Eurofins (KinaseProfiler)
T2 sequence (O14920 1-756): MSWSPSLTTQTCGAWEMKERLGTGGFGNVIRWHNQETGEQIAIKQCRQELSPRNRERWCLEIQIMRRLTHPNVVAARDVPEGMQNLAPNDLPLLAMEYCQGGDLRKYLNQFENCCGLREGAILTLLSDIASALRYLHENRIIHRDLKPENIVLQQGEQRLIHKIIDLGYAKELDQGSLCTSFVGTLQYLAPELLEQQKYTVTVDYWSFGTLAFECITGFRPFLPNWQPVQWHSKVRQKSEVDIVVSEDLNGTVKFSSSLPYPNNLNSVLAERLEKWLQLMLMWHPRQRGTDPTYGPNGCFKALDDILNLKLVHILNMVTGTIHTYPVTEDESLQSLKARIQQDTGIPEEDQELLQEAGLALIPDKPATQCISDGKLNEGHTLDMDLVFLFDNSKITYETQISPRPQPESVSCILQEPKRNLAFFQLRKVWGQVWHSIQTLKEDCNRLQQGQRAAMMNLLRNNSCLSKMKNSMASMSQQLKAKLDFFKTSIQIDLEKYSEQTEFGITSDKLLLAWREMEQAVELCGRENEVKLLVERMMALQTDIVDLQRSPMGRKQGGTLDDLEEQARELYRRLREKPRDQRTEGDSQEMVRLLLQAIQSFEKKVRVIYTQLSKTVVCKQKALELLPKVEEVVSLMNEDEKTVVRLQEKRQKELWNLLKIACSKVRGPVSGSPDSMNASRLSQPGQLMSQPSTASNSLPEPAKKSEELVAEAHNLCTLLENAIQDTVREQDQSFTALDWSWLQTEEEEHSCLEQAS

The next experiment concerns the target T3, CK1γ3(h) (Homo sapiens, UniProt Q9Y6M4).
T3 construct: purchased Eurofins (KinaseProfiler)

For another experiment, the target named is T4, PI3KC2γ(h) (Homo sapiens, UniProt O75747).
T4 construct: purchased Eurofins (KinaseProfiler)
T4 sequence (O75747 1-1486): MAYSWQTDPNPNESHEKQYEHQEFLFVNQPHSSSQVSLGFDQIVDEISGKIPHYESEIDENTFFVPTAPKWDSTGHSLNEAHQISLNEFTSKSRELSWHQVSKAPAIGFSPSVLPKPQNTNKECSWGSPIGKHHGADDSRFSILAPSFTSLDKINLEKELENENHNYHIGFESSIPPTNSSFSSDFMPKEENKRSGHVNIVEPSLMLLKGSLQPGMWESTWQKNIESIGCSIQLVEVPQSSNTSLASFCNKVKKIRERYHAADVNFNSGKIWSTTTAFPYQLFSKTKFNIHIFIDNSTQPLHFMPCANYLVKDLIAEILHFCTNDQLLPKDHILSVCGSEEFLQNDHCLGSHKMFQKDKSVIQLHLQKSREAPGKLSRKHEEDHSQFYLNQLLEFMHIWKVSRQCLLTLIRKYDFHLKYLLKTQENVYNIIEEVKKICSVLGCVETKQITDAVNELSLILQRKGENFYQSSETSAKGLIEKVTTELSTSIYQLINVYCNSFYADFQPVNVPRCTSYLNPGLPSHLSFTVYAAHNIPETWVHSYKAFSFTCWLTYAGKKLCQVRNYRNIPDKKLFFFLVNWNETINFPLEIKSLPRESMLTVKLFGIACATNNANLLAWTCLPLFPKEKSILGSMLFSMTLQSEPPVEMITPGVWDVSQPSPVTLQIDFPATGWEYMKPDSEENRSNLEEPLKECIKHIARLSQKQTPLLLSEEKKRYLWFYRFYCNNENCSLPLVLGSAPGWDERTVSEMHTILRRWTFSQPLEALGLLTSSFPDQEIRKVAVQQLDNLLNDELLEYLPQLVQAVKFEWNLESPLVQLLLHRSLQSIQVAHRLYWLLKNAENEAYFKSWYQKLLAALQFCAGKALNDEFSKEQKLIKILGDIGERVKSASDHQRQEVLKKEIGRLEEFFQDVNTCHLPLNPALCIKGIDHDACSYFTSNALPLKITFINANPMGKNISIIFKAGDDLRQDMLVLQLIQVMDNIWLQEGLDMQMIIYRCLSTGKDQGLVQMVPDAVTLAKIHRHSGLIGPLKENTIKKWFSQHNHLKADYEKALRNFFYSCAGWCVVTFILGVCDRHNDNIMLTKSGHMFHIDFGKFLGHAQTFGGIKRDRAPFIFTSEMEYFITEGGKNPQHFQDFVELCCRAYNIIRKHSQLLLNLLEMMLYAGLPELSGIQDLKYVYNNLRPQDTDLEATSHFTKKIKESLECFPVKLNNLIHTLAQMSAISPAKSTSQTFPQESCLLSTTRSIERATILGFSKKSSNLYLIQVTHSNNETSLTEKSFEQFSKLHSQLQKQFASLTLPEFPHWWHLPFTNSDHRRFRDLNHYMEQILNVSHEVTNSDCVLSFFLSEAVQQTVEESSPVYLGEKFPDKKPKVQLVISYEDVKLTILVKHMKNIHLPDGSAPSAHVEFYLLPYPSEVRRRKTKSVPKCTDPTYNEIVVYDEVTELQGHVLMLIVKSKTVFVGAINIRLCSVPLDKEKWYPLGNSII

A further experiment has as its target T5, Ros(h) (Homo sapiens, UniProt P08922).
T5 construct: purchased Eurofins (KinaseProfiler)

For a further experiment, the target named is T6, PKCθ(h) (Homo sapiens, UniProt Q04759).
T6 construct: purchased Eurofins (KinaseProfiler)

Another experiment deals with T7, PRK1(h) (Homo sapiens, UniProt Q16512).
T7 construct: purchased Eurofins (KinaseProfiler)
T7 sequence (Q16512 whole entry): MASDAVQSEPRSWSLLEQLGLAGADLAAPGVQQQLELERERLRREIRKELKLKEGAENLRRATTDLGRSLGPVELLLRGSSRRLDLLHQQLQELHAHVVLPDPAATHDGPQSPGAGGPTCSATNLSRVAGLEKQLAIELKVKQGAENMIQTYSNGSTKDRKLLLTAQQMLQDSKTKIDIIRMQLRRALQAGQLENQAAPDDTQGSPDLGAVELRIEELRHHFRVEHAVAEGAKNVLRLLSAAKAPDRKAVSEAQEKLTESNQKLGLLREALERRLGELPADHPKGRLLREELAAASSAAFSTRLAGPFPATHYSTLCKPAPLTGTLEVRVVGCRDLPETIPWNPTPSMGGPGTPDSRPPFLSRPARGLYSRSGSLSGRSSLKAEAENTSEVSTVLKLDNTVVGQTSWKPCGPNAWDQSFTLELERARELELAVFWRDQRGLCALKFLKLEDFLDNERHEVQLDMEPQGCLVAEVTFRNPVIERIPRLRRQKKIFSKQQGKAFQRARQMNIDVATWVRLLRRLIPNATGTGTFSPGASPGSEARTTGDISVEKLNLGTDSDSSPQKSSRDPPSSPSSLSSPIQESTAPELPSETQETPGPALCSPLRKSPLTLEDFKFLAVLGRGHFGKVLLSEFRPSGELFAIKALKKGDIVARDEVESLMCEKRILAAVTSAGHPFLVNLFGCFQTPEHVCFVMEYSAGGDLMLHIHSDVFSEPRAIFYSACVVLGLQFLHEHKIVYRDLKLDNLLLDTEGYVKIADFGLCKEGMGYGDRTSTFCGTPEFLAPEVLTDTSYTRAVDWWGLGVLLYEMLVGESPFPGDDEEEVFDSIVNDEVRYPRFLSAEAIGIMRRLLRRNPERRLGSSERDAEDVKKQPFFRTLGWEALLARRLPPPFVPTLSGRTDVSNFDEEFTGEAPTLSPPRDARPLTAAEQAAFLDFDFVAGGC

T1 sequence (Q15375 28-998): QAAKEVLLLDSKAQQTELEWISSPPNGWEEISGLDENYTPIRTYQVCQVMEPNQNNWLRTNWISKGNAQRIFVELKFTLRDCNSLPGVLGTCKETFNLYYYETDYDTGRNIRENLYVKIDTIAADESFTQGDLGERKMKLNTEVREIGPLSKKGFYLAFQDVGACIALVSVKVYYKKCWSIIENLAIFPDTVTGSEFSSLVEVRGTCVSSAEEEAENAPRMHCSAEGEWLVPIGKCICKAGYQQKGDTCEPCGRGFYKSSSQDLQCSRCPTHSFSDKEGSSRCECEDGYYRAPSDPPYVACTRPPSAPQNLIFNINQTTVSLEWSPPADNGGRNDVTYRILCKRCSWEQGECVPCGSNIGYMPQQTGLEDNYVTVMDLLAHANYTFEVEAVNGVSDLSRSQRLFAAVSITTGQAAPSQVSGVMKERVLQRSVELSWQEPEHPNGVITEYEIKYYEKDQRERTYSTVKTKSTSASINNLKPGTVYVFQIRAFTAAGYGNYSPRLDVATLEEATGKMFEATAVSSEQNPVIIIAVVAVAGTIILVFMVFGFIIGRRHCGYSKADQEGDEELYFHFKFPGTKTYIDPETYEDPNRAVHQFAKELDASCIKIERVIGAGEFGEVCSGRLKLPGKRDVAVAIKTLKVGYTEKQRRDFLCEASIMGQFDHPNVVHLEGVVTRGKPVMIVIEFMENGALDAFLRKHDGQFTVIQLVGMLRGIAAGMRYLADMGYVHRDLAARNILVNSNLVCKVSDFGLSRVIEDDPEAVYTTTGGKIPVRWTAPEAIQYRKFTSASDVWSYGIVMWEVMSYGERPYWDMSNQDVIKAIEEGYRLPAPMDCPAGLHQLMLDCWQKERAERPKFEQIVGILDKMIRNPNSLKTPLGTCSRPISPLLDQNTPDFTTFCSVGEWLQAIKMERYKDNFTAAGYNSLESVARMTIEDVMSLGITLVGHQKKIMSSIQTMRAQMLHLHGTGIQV
T6 sequence (Q04759 whole entry): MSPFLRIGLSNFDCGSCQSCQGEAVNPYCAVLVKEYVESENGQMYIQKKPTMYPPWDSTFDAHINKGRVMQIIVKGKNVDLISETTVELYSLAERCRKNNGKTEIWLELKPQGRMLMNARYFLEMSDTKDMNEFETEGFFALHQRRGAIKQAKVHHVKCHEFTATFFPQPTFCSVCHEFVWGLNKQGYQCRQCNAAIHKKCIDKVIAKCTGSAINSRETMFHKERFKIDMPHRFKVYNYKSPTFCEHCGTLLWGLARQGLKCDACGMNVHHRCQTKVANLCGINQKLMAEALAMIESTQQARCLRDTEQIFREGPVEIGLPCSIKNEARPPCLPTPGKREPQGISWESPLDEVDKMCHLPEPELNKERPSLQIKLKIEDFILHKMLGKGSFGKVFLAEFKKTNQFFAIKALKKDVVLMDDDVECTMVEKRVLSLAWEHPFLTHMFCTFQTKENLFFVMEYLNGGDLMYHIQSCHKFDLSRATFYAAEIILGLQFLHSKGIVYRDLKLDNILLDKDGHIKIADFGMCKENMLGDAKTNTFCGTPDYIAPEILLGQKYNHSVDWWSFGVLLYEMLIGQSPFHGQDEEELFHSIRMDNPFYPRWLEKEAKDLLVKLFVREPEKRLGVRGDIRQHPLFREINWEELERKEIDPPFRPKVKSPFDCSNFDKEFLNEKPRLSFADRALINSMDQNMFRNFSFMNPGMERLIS
T5 sequence (P08922 28-2347): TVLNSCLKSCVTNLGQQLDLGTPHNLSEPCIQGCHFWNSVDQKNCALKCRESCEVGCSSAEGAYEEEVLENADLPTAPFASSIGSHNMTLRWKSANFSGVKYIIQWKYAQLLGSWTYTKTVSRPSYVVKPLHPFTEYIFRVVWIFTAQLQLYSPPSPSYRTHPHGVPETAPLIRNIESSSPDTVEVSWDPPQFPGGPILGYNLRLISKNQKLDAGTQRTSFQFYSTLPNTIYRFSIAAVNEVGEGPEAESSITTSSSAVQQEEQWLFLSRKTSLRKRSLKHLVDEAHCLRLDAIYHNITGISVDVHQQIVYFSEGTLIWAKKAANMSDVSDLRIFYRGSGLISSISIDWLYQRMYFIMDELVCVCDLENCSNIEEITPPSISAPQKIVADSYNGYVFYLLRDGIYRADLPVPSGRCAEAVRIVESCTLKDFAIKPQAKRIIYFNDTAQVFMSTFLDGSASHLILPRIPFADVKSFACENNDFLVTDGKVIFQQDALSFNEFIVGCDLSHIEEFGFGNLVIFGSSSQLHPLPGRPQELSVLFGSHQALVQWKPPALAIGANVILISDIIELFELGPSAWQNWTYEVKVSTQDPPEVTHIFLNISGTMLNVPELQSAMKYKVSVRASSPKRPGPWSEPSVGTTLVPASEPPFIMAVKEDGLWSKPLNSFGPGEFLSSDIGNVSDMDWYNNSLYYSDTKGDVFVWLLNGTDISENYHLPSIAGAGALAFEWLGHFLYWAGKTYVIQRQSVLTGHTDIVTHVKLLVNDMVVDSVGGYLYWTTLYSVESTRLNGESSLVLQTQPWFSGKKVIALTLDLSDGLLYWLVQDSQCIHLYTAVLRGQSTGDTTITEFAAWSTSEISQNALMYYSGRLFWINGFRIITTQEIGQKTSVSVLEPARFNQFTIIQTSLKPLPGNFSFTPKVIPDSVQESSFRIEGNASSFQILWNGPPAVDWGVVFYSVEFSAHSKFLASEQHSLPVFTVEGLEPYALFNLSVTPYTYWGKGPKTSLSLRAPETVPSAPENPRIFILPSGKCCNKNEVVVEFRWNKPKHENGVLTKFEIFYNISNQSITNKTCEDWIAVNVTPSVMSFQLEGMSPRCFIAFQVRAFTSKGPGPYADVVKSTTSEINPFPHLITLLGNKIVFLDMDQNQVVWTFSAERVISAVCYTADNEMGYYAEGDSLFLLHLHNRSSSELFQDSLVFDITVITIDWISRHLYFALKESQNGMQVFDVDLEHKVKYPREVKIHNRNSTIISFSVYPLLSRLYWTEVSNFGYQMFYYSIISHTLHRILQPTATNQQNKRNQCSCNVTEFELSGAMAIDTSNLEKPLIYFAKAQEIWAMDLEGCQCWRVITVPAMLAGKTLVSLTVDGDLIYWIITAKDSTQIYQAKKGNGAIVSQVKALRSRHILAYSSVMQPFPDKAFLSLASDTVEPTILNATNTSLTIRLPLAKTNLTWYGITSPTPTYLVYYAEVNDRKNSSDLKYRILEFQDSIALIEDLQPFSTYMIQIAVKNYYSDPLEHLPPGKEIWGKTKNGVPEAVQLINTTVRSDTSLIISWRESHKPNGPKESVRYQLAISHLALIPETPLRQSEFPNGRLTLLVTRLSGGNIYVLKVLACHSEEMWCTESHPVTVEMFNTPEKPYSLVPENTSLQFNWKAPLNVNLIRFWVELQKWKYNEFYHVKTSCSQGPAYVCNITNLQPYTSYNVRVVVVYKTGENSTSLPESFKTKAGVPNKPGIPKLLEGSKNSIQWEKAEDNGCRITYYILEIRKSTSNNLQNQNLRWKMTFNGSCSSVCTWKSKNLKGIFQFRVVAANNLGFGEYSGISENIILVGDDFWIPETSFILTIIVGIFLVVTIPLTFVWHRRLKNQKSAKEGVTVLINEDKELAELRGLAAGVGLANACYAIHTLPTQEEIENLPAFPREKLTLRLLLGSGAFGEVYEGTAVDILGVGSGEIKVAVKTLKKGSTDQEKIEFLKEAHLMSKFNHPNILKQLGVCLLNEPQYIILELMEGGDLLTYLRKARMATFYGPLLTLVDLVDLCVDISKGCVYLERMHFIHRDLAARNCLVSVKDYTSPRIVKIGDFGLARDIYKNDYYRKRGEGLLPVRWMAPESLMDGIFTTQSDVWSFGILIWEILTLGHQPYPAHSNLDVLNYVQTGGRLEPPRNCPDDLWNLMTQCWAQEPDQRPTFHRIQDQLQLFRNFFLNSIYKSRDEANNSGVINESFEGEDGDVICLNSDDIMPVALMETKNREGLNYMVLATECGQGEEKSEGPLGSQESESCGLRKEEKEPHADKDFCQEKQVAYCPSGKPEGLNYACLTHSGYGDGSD

On to `COc1cc(OC)c(Cl)c(-c2ccc3c(NC(=O)c4ccc(N5CCNC(C)(C)C5)cc4)n[nH]c3n2)c1Cl` [3D185], for which the inhibition at 0.01 µM on EphA7(h) (10 nM) is 0%; at IKKβ(h) (10 nM) it was 0%; at CK1γ3(h) (10 nM) it was 1%; at PI3KC2γ(h) (10 nM) it was -4%; at Ros(h) (10 nM), -4%; on PKCθ(h) (10 nM), -3%. For the same compound, the inhibition at 0.01 µM at PRK1(h) (10 nM) came out at 2%. For the same compound, the inhibition at 0.1 µM is 8% on EphA7(h) (100 nM); -5% at IKKβ(h) (100 nM); -10% at CK1γ3(h) (100 nM); -4% at PI3KC2γ(h) (100 nM); 6% at Ros(h) (100 nM); -4% at PKCθ(h) (100 nM). In addition, the inhibition at 0.1 µM at PRK1(h) (100 nM) is 1%. Also, the inhibition at 1 µM was 21% at EphA7(h) (1000 nM); 15% at IKKβ(h) (1000 nM); 12% at CK1γ3(h) (1000 nM); 1% on PI3KC2γ(h) (1000 nM); 17% on Ros(h) (1000 nM); 1% on PKCθ(h) (1000 nM). In addition, the inhibition at 1 µM on PRK1(h) (1000 nM) was found to be 2%.

For the origin of these results see publication PMC6704710, “Preclinical evaluation of 3D185, a novel potent inhibitor of FGFR1/2/3 and CSF-1R, in FGFR-dependent and macrophage-dominant cancer models” (Journal of Experimental & Clinical Cancer Research : CR, 2019).
